In US8471005B2 (Cephalon, Inc., priority 2008, dated 2013):

Assays:
ALK = molecular target: T1, ALK (Homo sapiens, UniProt Q9UM73); experiment: ALK Kinase Assay (ELISA/TRF, PLC-γ substrate); type: biochemical; conditions: ALK Kinase Inhibition; read-out: ALK Potency
T1 construct: host or cells: baculovirus expression system
In short: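 Time-resolved fluorescence ELISA using Eu-N1 PT66 antibody to detect phosphorylated PLC-γ (coated at 10 μg/mL). Enzyme at 30 ng/ml ALK; 15 min incubation, 37° C.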

JAK2 = molecular target: T2, JAK2 (Homo sapiens, UniProt O60674); experiment: Recombinant Human JAK2 Kinase Assay (TRF); type: biochemical; conditions: JAK2 Kinase Inhibition; read-out: JAK2 Potency
T2 construct: host or cells: baculovirus expression system
In short: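 Baculovirus-expressed JAK2 (15 ng/ml) phosphorylated a biotinylated 15-mer peptide captured on Neutravidin, in 20 mM HEPES pH 7.2, 0.2 μM ATP, 1 mM MnCl2, 0.1% BSA, 2.5% DMSO final, 20 min at room temperature. Phosphoproduct detected by time-resolved fluorescence with Eu-N1-labelled PY100 antibody.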

T1 sequence (Q9UM73 19-1620): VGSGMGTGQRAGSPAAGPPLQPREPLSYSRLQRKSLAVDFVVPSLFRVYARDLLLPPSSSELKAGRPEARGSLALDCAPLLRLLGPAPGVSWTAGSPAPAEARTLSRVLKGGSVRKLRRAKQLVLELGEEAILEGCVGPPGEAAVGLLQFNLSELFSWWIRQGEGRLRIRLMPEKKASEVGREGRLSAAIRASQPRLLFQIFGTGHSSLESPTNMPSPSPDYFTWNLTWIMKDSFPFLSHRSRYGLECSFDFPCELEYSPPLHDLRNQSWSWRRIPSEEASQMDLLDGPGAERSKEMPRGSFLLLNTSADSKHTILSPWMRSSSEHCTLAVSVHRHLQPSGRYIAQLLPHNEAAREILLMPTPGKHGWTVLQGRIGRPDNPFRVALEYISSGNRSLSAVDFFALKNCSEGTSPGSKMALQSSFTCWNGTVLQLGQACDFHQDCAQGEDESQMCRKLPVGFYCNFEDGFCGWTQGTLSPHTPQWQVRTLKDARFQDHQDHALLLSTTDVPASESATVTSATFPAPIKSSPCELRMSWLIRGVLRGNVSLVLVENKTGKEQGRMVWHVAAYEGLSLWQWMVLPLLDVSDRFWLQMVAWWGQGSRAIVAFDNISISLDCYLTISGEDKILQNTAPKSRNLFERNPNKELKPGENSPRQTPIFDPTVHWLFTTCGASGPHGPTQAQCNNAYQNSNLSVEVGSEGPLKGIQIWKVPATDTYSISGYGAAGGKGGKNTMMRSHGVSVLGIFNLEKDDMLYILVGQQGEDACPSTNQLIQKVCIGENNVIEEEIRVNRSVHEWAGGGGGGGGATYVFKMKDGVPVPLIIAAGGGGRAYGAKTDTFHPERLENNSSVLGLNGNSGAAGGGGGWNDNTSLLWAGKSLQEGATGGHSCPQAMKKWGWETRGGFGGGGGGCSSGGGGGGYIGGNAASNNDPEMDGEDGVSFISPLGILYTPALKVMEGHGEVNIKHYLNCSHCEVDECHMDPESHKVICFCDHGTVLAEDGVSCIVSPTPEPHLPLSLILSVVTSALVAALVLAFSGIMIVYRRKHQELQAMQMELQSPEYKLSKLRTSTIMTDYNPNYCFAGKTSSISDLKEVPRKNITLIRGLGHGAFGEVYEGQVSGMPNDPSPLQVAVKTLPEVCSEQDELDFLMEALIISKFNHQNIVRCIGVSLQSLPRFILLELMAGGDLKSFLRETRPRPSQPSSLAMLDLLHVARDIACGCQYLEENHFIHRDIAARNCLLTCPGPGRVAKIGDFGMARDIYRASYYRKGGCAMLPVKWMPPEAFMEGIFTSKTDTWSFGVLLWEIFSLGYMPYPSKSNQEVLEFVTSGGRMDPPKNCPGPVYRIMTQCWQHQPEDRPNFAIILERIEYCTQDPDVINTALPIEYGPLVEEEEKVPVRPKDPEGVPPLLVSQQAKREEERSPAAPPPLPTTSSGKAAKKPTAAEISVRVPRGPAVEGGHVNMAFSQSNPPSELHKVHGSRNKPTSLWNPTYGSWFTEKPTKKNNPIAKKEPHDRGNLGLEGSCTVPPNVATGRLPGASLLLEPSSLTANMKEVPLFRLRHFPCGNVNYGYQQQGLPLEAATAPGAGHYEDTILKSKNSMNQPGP
T2 sequence (O60674 whole entry): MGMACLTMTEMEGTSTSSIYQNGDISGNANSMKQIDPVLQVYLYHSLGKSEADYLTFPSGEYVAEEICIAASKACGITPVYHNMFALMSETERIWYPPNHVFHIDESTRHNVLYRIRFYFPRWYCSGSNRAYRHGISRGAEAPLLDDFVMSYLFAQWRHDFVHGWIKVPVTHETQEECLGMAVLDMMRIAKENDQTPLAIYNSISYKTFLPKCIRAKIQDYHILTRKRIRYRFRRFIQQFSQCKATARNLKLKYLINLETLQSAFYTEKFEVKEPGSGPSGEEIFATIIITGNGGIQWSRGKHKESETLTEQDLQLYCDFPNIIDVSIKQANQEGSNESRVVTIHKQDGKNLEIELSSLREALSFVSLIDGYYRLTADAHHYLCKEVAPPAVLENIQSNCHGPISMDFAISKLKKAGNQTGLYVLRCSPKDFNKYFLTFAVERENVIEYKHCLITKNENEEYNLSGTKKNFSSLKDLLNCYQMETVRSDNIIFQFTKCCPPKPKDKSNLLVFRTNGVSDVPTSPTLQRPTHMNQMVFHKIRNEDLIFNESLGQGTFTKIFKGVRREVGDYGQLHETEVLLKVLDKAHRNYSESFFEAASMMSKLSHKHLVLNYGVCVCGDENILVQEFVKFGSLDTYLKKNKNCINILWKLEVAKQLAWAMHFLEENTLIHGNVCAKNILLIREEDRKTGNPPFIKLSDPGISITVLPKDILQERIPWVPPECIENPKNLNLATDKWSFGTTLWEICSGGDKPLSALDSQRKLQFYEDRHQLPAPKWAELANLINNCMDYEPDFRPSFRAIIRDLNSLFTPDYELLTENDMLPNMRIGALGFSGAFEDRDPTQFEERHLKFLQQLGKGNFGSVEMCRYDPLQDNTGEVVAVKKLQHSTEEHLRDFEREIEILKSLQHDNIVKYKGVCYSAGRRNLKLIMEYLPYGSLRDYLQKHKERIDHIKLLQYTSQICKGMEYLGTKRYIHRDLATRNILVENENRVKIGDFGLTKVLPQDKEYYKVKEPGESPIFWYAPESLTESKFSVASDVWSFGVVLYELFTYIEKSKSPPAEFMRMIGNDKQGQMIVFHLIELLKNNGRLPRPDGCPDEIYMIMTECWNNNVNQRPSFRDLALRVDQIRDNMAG

SMILES: CC(C)(C)NS(=O)(=O)c1cccc(-c2ccc3cnc(Nc4ccc(Cl)cc4)nn23)c1 [Example 1400, N-tert-Butyl-3-[2-(4-chloro-phenylamino)-pyrrolo[2,1-f][1,2,4]triazin-7-yl]-benzenesulfonamide]
- IC50 (ALK): 1000 to 10000 nM
- IC50 (JAK2): < 100 nM

SMILES: CN1CCN(c2ccc(Nc3ncc4ccc(-c5ccccc5OCC(=O)O)n4n3)cc2F)CC1 [Example 1401, (2-{2-[3-Fluoro-4-(4-methyl-piperazin-1-yl)-phenylamino]-pyrrolo[2,1-f][1,2,4]triazin-7-yl}-phenoxy)-acetic acid]
- IC50 (ALK): 100 to 1000 nM
- IC50 (JAK2): < 100 nM

SMILES: CC(C)(C)NS(=O)(=O)c1cccc(-c2ccc3cnc(Nc4ccc(-c5cnco5)cc4)nn23)c1 [Example 1402, N-tert-Butyl-3-[2-(4-oxazol-5-yl-phenylamino)-pyrrolo[2,1-f][1,2,4]triazin-7-yl]-benzenesulfonamide]
- IC50 (ALK): 1000 to 10000 nM
- IC50 (JAK2): < 100 nM

SMILES: CN1CCN(c2ccc(Nc3ncc4ccc(-c5ccccc5OCC(=O)N(C)C)n4n3)cc2)CC1 [Example 1403, N,N-Dimethyl-2-(2-{2-[4-(4-methyl-piperazin-1-yl)-phenylamino]-pyrrolo[2,1-f][1,2,4]triazin-7-yl}-phenoxy)-acetamide]
- IC50 (ALK): 100 to 1000 nM
- IC50 (JAK2): < 100 nM

SMILES: CN1CCN(c2ccc(Nc3ncc4ccc(-c5ccccc5OCC(=O)N(C)C)n4n3)cc2F)CC1 [Example 1404, 2-(2-{2-[3-Fluoro-4-(4-methyl-piperazin-1-yl)-phenylamino]-pyrrolo[2,1-f][1,2,4]triazin-7-yl}-phenoxy)-N,N-dimethyl-acetamide]
- IC50 (ALK): 100 to 1000 nM
- IC50 (JAK2): < 100 nM

SMILES: COc1ccc(-c2ccc3cnc(Nc4ccc(CN5CCCC5)cc4)nn23)cn1 [Example 1405, [7-(6-Methoxy-pyridin-3-yl)-pyrrolo[2,1-f][1,2,4]triazin-2-yl]-(4-pyrrolidin-1-ylmethyl-phenyl)-amine]
- IC50 (ALK): 1000 to 10000 nM
- IC50 (JAK2): < 100 nM

SMILES: COc1ccc(-c2ccc3cnc(Nc4ccc(C(=O)N5CCOCC5)cc4)nn23)cn1 [Example 1406, {4-[7-(6-Methoxy-pyridin-3-yl)-pyrrolo[2,1-f][1,2,4]triazin-2-ylamino]-phenyl}-morpholin-4-yl-methanone]
- IC50 (ALK): > 10000 nM
- IC50 (JAK2): < 100 nM

SMILES: CC(C)(C)NS(=O)(=O)c1cccc(-c2ccc3cnc(Nc4ccc(N5CCN(CC(N)=O)CC5)c(F)c4)nn23)c1 [Example 1407, 2-(4-{4-[7-(3-tert-Butylsulfamoyl-phenyl)-pyrrolo[2,1-f][1,2,4]triazin-2-ylamino]-2-fluoro-phenyl}-piperazin-1-yl)-acetamide]
- IC50 (ALK): 100 to 1000 nM
- IC50 (JAK2): < 100 nM

SMILES: CN(c1ccccc1-c1ccc2cnc(Nc3ccc(C4CCN(CC(N)=O)CC4)cc3)nn12)S(C)(=O)=O [Example 1408, 2-[4-(4-{7-[2-(Methanesulfonyl-methyl-amino)-phenyl]-pyrrolo[2,1-f][1,2,4]triazin-2-ylamino}-phenyl)-piperidin-1-yl]-acetamide]
- IC50 (ALK): < 100 nM
- IC50 (JAK2): < 100 nM

SMILES: CN1CCC(c2ccc(Nc3ncc4ccc(-c5ccccc5OCC(N)=O)n4n3)cc2)CC1 [Example 1409, 2-(2-{2-[4-(1-Methyl-piperidin-4-yl)-phenylamino]-pyrrolo[2,1-f][1,2,4]triazin-7-yl}-phenoxy)-acetamide]
- IC50 (ALK): 100 to 1000 nM
- IC50 (JAK2): < 100 nM

SMILES: CN1CCN(C(=O)c2ccc(Nc3ncc4ccc(-c5cccc(S(=O)(=O)NC(C)(C)C)c5)n4n3)cc2)CC1 [Example 1410, N-tert-Butyl-3-{2-[4-(4-methyl-piperazine-1-carbonyl)-phenylamino]-pyrrolo[2,1-f][1,2,4]triazin-7-yl}-benzenesulfonamide]
- IC50 (ALK): 100 to 1000 nM
- IC50 (JAK2): < 100 nM

SMILES: COc1ccc(-c2ccc3cnc(Nc4ccc(C5CCN(CC(N)=O)CC5)cc4)nn23)cn1 [Example 1413, 2-(4-{4-[7-(6-Methoxy-pyridin-3-yl)-pyrrolo[2,1-f][1,2,4]triazin-2-ylamino]-phenyl}-piperidin-1-yl)-acetamide]
- IC50 (ALK): 100 to 1000 nM
- IC50 (JAK2): < 100 nM

SMILES: COc1ccc(-c2ccc3cnc(Nc4ccc(N5CCN(CC(N)=O)CC5)c(F)c4)nn23)cn1 [Example 1414, 2-(4-{2-Fluoro-4-[7-(6-methoxy-pyridin-3-yl)-pyrrolo[2,1-f][1,2,4]triazin-2-ylamino]-phenyl}-piperazin-1-yl)-acetamide]
- IC50 (ALK): 1000 to 10000 nM
- IC50 (JAK2): < 100 nM

SMILES: COc1ccc(-c2ccc3cnc(Nc4ccc(N5CCN(CC(N)=O)CC5)c(F)c4)nn23)cn1 [Example 1415, 2-(4-{2-Fluoro-4-[7-(6-methoxy-pyridin-3-yl)-pyrrolo[2,1-f][1,2,4]triazin-2-ylamino]-phenyl}-piperazin-1-yl)-acetamide]
- IC50 (ALK): 100 to 1000 nM
- IC50 (JAK2): < 100 nM

SMILES: COc1ccccc1-c1ccc2cnc(Nc3ccc(N4CCN(CC(N)=O)CC4)c(F)c3)nn12 [Example 1416, 2-(4-{2-Fluoro-4-[7-(2-methoxy-phenyl)-pyrrolo[2,1-f][1,2,4]triazin-2-ylamino]-phenyl}-piperazin-1-yl)-acetamide]
- IC50 (ALK): 100 to 1000 nM
- IC50 (JAK2): < 100 nM

SMILES: COc1ccc(-c2ccc3cnc(Nc4ccc(C(=O)N5CCN(C)CC5)cc4)nn23)cn1 [Example 1420, {4-[7-(6-Methoxy-pyridin-3-yl)-pyrrolo[2,1-f][1,2,4]triazin-2-ylamino]-phenyl}-(4-methyl-piperazin-1-yl)-methanone]
- IC50 (ALK): 1000 to 10000 nM
- IC50 (JAK2): < 100 nM

SMILES: CN(c1ccccc1-c1ccc2cnc(Nc3ccc(N4CCN(CC(N)=O)CC4)c(F)c3)nn12)S(C)(=O)=O [Example 1422, 2-[4-(2-Fluoro-4-{7-[2-(methanesulfonyl-methyl-amino)-phenyl]-pyrrolo[2,1-f][1,2,4]triazin-2-ylamino}-phenyl)-piperazin-1-yl]-acetamide]
- IC50 (ALK): 100 to 1000 nM
- IC50 (JAK2): < 100 nM

SMILES: CN1CCN(C(=O)c2ccc(Nc3ncc4ccc(-c5ccccc5N(C)S(C)(=O)=O)n4n3)cc2)CC1 [Example 1425, N-Methyl-N-(2-{2-[4-(4-methyl-piperazine-1-carbonyl)-phenylamino]-pyrrolo[2,1-f][1,2,4]triazin-7-yl}-phenyl)-methanesulfonamide]
- IC50 (ALK): 100 to 1000 nM
- IC50 (JAK2): < 100 nM

SMILES: NC(=O)CN1CCC(c2ccc(Nc3ncc4ccc(-c5ccccc5O)n4n3)cc2)CC1 [Example 1427, 2-(4-{4-[7-(2-Hydroxy-phenyl)-pyrrolo[2,1-f][1,2,4]triazin-2-ylamino]-phenyl}-piperidin-1-yl)-acetamide]
- IC50 (ALK): 100 to 1000 nM
- IC50 (JAK2): < 100 nM

SMILES: CN(c1ccccc1-c1ccc2cnc(Nc3ccc(CN4CCCC4)cc3)nn12)S(C)(=O)=O [Example 1428, N-Methyl-N-{2-[2-(4-pyrrolidin-1-ylmethyl-phenylamino)-pyrrolo[2,1-f][1,2,4]triazin-7-yl]-phenyl}-methane sulfonamide]
- IC50 (ALK): 100 to 1000 nM
- IC50 (JAK2): < 100 nM

SMILES: CC(C)(C)NS(=O)(=O)c1cccc(-c2ccc3cnc(Nc4ccc(CN5CCCC5)cc4)nn23)c1 [Example 1429, N-tert-Butyl-3-[2-(4-pyrrolidin-1-ylmethyl-phenylamino)-pyrrolo[2,1-f][1,2,4]triazin-7-yl]-benzenesulfonamide]
- IC50 (ALK): 100 to 1000 nM
- IC50 (JAK2): < 100 nM

SMILES: COc1ccccc1-c1ccc2cnc(Nc3ccc(CN4CCCC4)cc3)nn12 [Example 1430, [7-(2-Methoxy-phenyl)-pyrrolo[2,1-f][1,2,4]triazin-2-yl]-(4-pyrrolidin-1-ylmethyl-phenyl)-amine]
- IC50 (ALK): < 100 nM
- IC50 (JAK2): < 100 nM

SMILES: C[C@H](O)CN1CCC(c2ccc(Nc3ncc4ccc(-c5cccc(S(C)(=O)=O)c5)n4n3)cc2)CC1 [Example 1431, (S)-1-(4-{4-[7-(3-Methanesulfonyl-phenyl)-pyrrolo[2,1-f][1,2,4]triazin-2-ylamino]-phenyl}-piperidin-1-yl)-propan-2-ol]
- IC50 (ALK): 100 to 1000 nM
- IC50 (JAK2): < 100 nM

SMILES: C[C@H](O)CN1CCC(c2ccc(Nc3ncc4ccc(-c5ccc(S(C)(=O)=O)cc5)n4n3)cc2)CC1 [Example 1432, (S)-1-(4-{4-[7-(4-Methanesulfonyl-phenyl)-pyrrolo[2,1-f][1,2,4]triazin-2-ylamino]-phenyl}-piperidin-1-yl)-propan-2-ol]
- IC50 (ALK): < 100 nM
- IC50 (JAK2): < 100 nM

SMILES: CN(C)Cc1ccc(-c2ccc3cnc(Nc4ccc(C5CCN(CC(N)=O)CC5)cc4)nn23)cc1 [Example 1433, 2-(4-{4-[7-(4-Dimethylaminomethyl-phenyl)-pyrrolo[2,1-f][1,2,4]triazin-2-ylamino]-phenyl}-piperidin-1-yl)-acetamide]
- IC50 (ALK): 1000 to 10000 nM
- IC50 (JAK2): 1000 to 10000 nM

SMILES: CS(=O)(=O)c1cccc(-c2ccc3cnc(Nc4ccc(C5CCN(CC(N)=O)CC5)cc4)nn23)c1 [Example 1434, 2-(4-{4-[7-(3-Methanesulfonyl-phenyl)-pyrrolo[2,1-f][1,2,4]triazin-2-ylamino]-phenyl}-piperidin-1-yl)-acetamide]
- IC50 (ALK): 100 to 1000 nM
- IC50 (JAK2): < 100 nM

SMILES: CS(=O)(=O)c1ccc(-c2ccc3cnc(Nc4ccc(C5CCN(CC(N)=O)CC5)cc4)nn23)cc1 [Example 1435, 2-(4-{4-[7-(4-Methanesulfonyl-phenyl)-pyrrolo[2,1-f][1,2,4]triazin-2-ylamino]-phenyl}-piperidin-1-yl)-acetamide]
- IC50 (ALK): 100 to 1000 nM
- IC50 (JAK2): < 100 nM

SMILES: CN1CCN(c2ccc(Nc3ncc4ccc(-c5ccc(S(C)(=O)=O)cc5)n4n3)cc2F)CC1 [Example 1437, [3-Fluoro-4-(4-methyl-piperazin-1-yl)-phenyl]-[7-(4-methanesulfonyl-phenyl)-pyrrolo[2,1-f][1,2,4]triazin-2-yl]-amine]
- IC50 (ALK): 100 to 1000 nM
- IC50 (JAK2): < 100 nM
